Assay results reported in US6375928B1, “Neutrophil stimulating peptides” (Peptech Limited, priority 1990, dated 2002).
Where no end group is shown, it is not given here. The star is where a group is joined. Acm = CC(=O)NC*

Key:
Format in all cases: cell-based
human neutrophils [1] = experiment: Chemiluminescence assay: priming of neutrophils for F-met-leu-phe response (respiratory burst); conditions: for Chemiluminescence mean + sem: priming neutrophils for respiratory burst; for Chemiluminescence, neutrophil respiratory burst: 100 ug peptide, second, Table 4; for lucigenin dependent chemiluminescence, peak of response: 20 min pretreatment before f-met-leu-phe; for chemiluminescence (repeat experiment, Table 3): peptide + fMLP
Description: Purified human neutrophils were pretreated with peptide for 20 minutes before the addition of f-met-leu-phe. The lucigenin dependent chemiluminescence response, which reflects superoxide production, was then measured. The results obtained are set out in Table 2 and are expressed as mV of lucigenin dependent chemiluminescence and represent the maximal cell activity attained.
Results are expressed as mV of lucigenin dependent chemiluminescence and represent peak of response i.e. the maximal cell activity attained.

neutrophils [2] = experiment: Superoxide formation, cytochrome reduction assay
Source text: The effect of peptides 308 and 309 (SEQ ID NOs. 10 & 11) on superoxide formation was examined by the cytochrome reduction assay, according to the procedure of Ferrante, 1989 (Infection and Immunity), 57: 2115-2122). The results, expressed as n moles of O2/5×10^5 cells as set out in Table 6.

neutrophils [3] = experiment: Neutrophil random migration out of wells in agarose
Source text: Migration of cells is an important property by which cells reach infection sites. Their accumulation at these sites is also dependent on the capacity of inflammatory mediators to inhibit their migration out of the sites.

neutrophils [4] = experiment: Chemotactic properties, neutrophil migration under agarose; conditions: towards agent well; 1 × 10^−7 M fMLP, peptide, or 10^3 U/ml TNFα; 2×10^5 neutrophils
Description: 5 μl of neutrophils (2×10^5 cells) were added to the inner well, with chemotactic agent or control medium added to the outer wells. Migration at various time intervals was then measured.

human neutrophils [5] = experiment: Chemiluminescence assay: priming of neutrophils for F-met-leu-phe response (respiratory burst); conditions: peptide alone
monocytes = experiment: Priming of monocytes for a respiratory burst (chemiluminescence); conditions: with fMLP; 10^6 monocytes/tube/ml; 419 100 μg/10^6 monocytes, 50 U TNF or no pre-treatment, 30 min pre-incubation 37° C.
Description: Peptide 419 (SEQ ID NO. 18) was assayed for its ability to prime monocytes for a respiratory burst. This assay was conducted essentially as described above for neutrophils except that the cells were cultured for 24 hours prior to assay.

neutrophils [6] = experiment: Neutrophil degranulation: β-glucuronidase release (azurophilic granules); conditions: for β-glucuronidase release, Exp. 1 / β-glucuronidase release, Exp. 2 / β-glucuronidase release, Exp. 3 / β-glucuronidase release, Exp. 4: in the presence of CytoB
neutrophils [7] = experiment: Neutrophil degranulation: Vitamin B12 binding protein release (specific granules); conditions: for Vitamin B12 Binding Protein, Exp. 1 / Vitamin B12 Binding Protein, Exp. 2 / Vitamin B12 Binding Protein, Exp. 3 / Vitamin B12 Binding Protein, Exp. 4: in the presence of CytoB
[8] = peptide 100 μg/10^6 cells (or HBSS) + fMLP
[9] = peptide 100 μg/10^6 cells, no fMLP

Compound: K G Q G Cys (Acm) P S T H V L L T H T (KGQGC(Acm)PSTHVLLTHT) [Peptide 462, reference compound]
- priming of neutrophils for the respiratory burst associated with f-met-leu-phe treatment (in words) (human neutrophils [1]): does not possess the biological activity of those peptides
- Chemiluminescence mean + sem (human neutrophils [1]; 1 μg peptide): 3.1 ± 0.5 mV
- Chemiluminescence mean + sem (human neutrophils [1]; 10 μg peptide): 4.8 ± 0.7 mV
- Chemiluminescence mean + sem (human neutrophils [1]; 100 μg peptide): 4.8 ± 0.5 mV

Compound: HVLLTHTISRIAVSYQTKVNLL (HVLLTHTISRIAVSYQTKVNLL) [Peptide 309]
- neutrophil stimulating activity / stimulation of neutrophil respiratory burst (in words) (human neutrophils [1]): neutrophil stimulating activity
- priming of neutrophils for the respiratory burst associated with f-met-leu-phe treatment (in words) (human neutrophils [1]): found to prime human neutrophils for the respiratory burst
- Chemiluminescence, neutrophil respiratory burst (human neutrophils [1]): 4.70 mV
- lucigenin dependent chemiluminescence, peak of response (human neutrophils [1]; peptide 1 μg/10^6 cells): 0.38 mV
- lucigenin dependent chemiluminescence, peak of response (human neutrophils [1]; peptide 10 μg/10^6 cells): 0.98 mV
- lucigenin dependent chemiluminescence, peak of response (human neutrophils [1]; peptide 100 μg/10^6 cells): 13.44 mV
- chemiluminescence (repeat experiment, Table 3) (human neutrophils [1]; 10 μg/10^6 cells): 2.46 mV
- chemiluminescence (repeat experiment, Table 3) (human neutrophils [1]; 100 μg/10^6 cells): 12.84 mV
- superoxide formation (neutrophils [2]; peptide + fMLP, 10 μg/5 × 10^5 cells): 3.87 n moles of O2/5×10^5 cells
- superoxide formation (neutrophils [2]; peptide + fMLP, 100 μg/5 × 10^5 cells): 5.14 n moles of O2/5×10^5 cells
- superoxide formation (neutrophils [2]; peptide alone, 10 μg/5 × 10^5 cells): 0.62 n moles of O2/5×10^5 cells
- superoxide formation (neutrophils [2]; peptide alone, 100 μg/5 × 10^5 cells): 2.30 n moles of O2/5×10^5 cells
- effect on neutrophil random migration (in words) (neutrophils [3]): potent inhibitors of neutrophil migration
- Inhibition of Migration (neutrophils [3]; 10 μg/10^6 cells): 0%
- Inhibition of Migration (neutrophils [3]; 100 μg/10^6 cells): 100%
- Migration distance at 1.5 h, Agent (neutrophils [4]): 0.53 mm
- Migration distance at 2.5 h, Agent (neutrophils [4]): 0.68 mm
- chemiluminescence (repeat experiment, Table 3) (human neutrophils [5]; 10 μg/10^6 cells): 0.31 mV
- chemiluminescence (repeat experiment, Table 3) (human neutrophils [5]; 100 μg/10^6 cells): 0.69 mV

Compound: S R I A V S Y Q T K V N L L (SRIAVSYQTKVNLL) [Peptide 394]
- Chemiluminescence, neutrophil respiratory burst (human neutrophils [1]): 0.33 mV

Compound: A K P W Y E P I Y L (AKPWYEPIYL) [Peptide 275]
- lucigenin dependent chemiluminescence, peak of response (human neutrophils [1]; peptide 1 μg/10^6 cells): 0.99 mV
- lucigenin dependent chemiluminescence, peak of response (human neutrophils [1]; peptide 10 μg/10^6 cells): 0.69 mV
- lucigenin dependent chemiluminescence, peak of response (human neutrophils [1]; peptide 100 μg/10^6 cells): 0.43 mV
- lucigenin dependent chemiluminescence, peak of response (human neutrophils [1]; peptide 500 μg/10^6 cells): 0.80 mV

Compound: P S A H V L L T H T I (PSAHVLLTHTI) [Peptide 418]
- neutrophil stimulating activity / stimulation of neutrophil respiratory burst (in words) (human neutrophils [1]): neutrophil stimulating activity

Compound: A V S Y Q T K V N L L (AVSYQTKVNLL) [Peptide 396]
- Chemiluminescence, neutrophil respiratory burst (human neutrophils [1]): 0.70 mV

Compound: V A H V V A N P Q A E G Q L (VAHVVANPQAEGQL) [Peptide 306]
- lucigenin dependent chemiluminescence, peak of response (human neutrophils [1]; peptide 1 μg/10^6 cells): 0.27 mV
- lucigenin dependent chemiluminescence, peak of response (human neutrophils [1]; peptide 10 μg/10^6 cells): 0.35 mV
- lucigenin dependent chemiluminescence, peak of response (human neutrophils [1]; peptide 100 μg/10^6 cells): 0.23 mV

Compound: L T H T I S R I A (LTHTISRIA) [Peptide 393]
- Chemiluminescence, neutrophil respiratory burst (human neutrophils [1]): 0.31 mV

Compound: L S A I K S P C Q R E T P E G A (LSAIKSPCQRETPEGA) [Peptide 303]
- lucigenin dependent chemiluminescence, peak of response (human neutrophils [1]; peptide 1 μg/10^6 cells): 0.23 mV
- lucigenin dependent chemiluminescence, peak of response (human neutrophils [1]; peptide 10 μg/10^6 cells): 0.17 mV
- lucigenin dependent chemiluminescence, peak of response (human neutrophils [1]; peptide 100 μg/10^6 cells): 0.22 mV

Compound: T I S R I A V S Y Q T (TISRIAVSYQT) [Peptide 323]
- priming of neutrophils for the respiratory burst associated with f-met-leu-phe treatment (in words) (human neutrophils [1]): not found to be capable of priming neutrophils
- lucigenin dependent chemiluminescence, peak of response (human neutrophils [1]; peptide 1 μg/10^6 cells): 0.23 mV
- lucigenin dependent chemiluminescence, peak of response (human neutrophils [1]; peptide 10 μg/10^6 cells): 0.17 mV
- lucigenin dependent chemiluminescence, peak of response (human neutrophils [1]; peptide 100 μg/10^6 cells): 0.47 mV

Compound: V R S S S R T P S D K P V A H V V A (VRSSSRTPSDKPVAHVVA) [Peptide 301]
- lucigenin dependent chemiluminescence, peak of response (human neutrophils [1]; peptide 1 μg/10^6 cells): 0.93 mV
- lucigenin dependent chemiluminescence, peak of response (human neutrophils [1]; peptide 10 μg/10^6 cells): 0.74 mV
- lucigenin dependent chemiluminescence, peak of response (human neutrophils [1]; peptide 100 μg/10^6 cells): 0.55 mV
- lucigenin dependent chemiluminescence, peak of response (human neutrophils [1]; peptide 500 μg/10^6 cells): 1.10 mV

Compound: L R D N Q L V V P S E G L Y L I (LRDNQLVVPSEGLYLI) [Peptide 302]
- lucigenin dependent chemiluminescence, peak of response (human neutrophils [1]; peptide 1 μg/10^6 cells): 0.16 mV
- lucigenin dependent chemiluminescence, peak of response (human neutrophils [1]; peptide 10 μg/10^6 cells): 0.18 mV
- lucigenin dependent chemiluminescence, peak of response (human neutrophils [1]; peptide 100 μg/10^6 cells): 0.29 mV

Compound: CSCC[C@H](NC=O)C(=O)N[C@@H](CC(C)C)C(=O)N[C@@H](Cc1ccccc1)C(=O)O [fMLP, N-formyl-L-methionyl-L-leucyl-L-phenylalanine, reference compound]
- Peak mV Chemiluminescence, Mean ± S.D. (monocytes): 109.0 ± 7.071 mV
- Peak mV Chemiluminescence, experiment 2 (monocytes): 114.0 mV
- Migration distance at 1.5 h, Agent (neutrophils [4]): 1.46 mm
- Migration distance at 2.5 h, Agent (neutrophils [4]): 2.45 mm

Compound: A E G Q L Q W L N R R A N A L L A N G (AEGQLQWLNRRANALLANG) [Peptide 307]
- lucigenin dependent chemiluminescence, peak of response (human neutrophils [1]; peptide 1 μg/10^6 cells): 0.35 mV
- lucigenin dependent chemiluminescence, peak of response (human neutrophils [1]; peptide 10 μg/10^6 cells): 0.37 mV
- lucigenin dependent chemiluminescence, peak of response (human neutrophils [1]; peptide 100 μg/10^6 cells): 0.42 mV

Compound: L S A E I N R P D Y L D F A E S G Q V (LSAEINRPDYLDFAESGQV) [Peptide 305]
- lucigenin dependent chemiluminescence, peak of response (human neutrophils [1]; peptide 1 μg/10^6 cells): 0.27 mV
- lucigenin dependent chemiluminescence, peak of response (human neutrophils [1]; peptide 10 μg/10^6 cells): 0.36 mV
- lucigenin dependent chemiluminescence, peak of response (human neutrophils [1]; peptide 100 μg/10^6 cells): 0.24 mV

Compound: LFKGQGCPSTHVLLTHTISRI (LFKGQGCPSTHVLLTHTISRI) [Peptide 304]
- neutrophil stimulating activity / stimulation of neutrophil respiratory burst (in words) (human neutrophils [1]): neutrophil stimulating activity
- priming of neutrophils for the respiratory burst associated with f-met-leu-phe treatment (in words) (human neutrophils [1]): found to prime human neutrophils for the respiratory burst
- lucigenin dependent chemiluminescence, peak of response (human neutrophils [1]; peptide 1 μg/10^6 cells): 0.18 mV
- lucigenin dependent chemiluminescence, peak of response (human neutrophils [1]; peptide 10 μg/10^6 cells): 0.43 mV
- lucigenin dependent chemiluminescence, peak of response (human neutrophils [1]; peptide 100 μg/10^6 cells): 2.56 mV
- lucigenin dependent chemiluminescence, peak of response (human neutrophils [1]; peptide 500 μg/10^6 cells): 2.76 mV
- chemiluminescence (repeat experiment, Table 3) (human neutrophils [1]; 10 μg/10^6 cells): 0.91 mV
- chemiluminescence (repeat experiment, Table 3) (human neutrophils [1]; 100 μg/10^6 cells): 6.97 mV
- effect on neutrophil random migration (in words) (neutrophils [3]): chemokinetic
- Inhibition of Migration (neutrophils [3]; 10 μg/10^6 cells): −43%
- Inhibition of Migration (neutrophils [3]; column headed 0 μg/10^6 cells): −16%
- Migration distance at 1.5 h, Agent (neutrophils [4]): 0.47 mm
- Migration distance at 2.5 h, Agent (neutrophils [4]): 0.72 mm
- release from azurophilic granules (β-glucuronidase), in words (neutrophils [6]; absence of fMLP): no effect
- β-glucuronidase release, Exp. 1 (neutrophils [6]; [8]): 26.95%
- β-glucuronidase release, Exp. 2 (neutrophils [6]; [8]): 36.43%
- β-glucuronidase release, Exp. 3 (neutrophils [6]; [8]): 35.34%
- β-glucuronidase release, Exp. 4 (neutrophils [6]; [8]): 36.65%
- β-glucuronidase release, Exp. 1 (neutrophils [6]; [9]): 3.63%
- β-glucuronidase release, Exp. 2 (neutrophils [6]; [9]): 3.14%
- β-glucuronidase release, Exp. 3 (neutrophils [6]; [9]): 2.52%
- β-glucuronidase release, Exp. 4 (neutrophils [6]; [9]): 9.82%
- release from azurophilic granules (β-glucuronidase), in words (neutrophils [6]; presence of fMLP): not azurophilic granules
- release from specific granules (Vitamin B12 binding protein), in words (neutrophils [7]; absence of fMLP): no effect
- Vitamin B12 Binding Protein, Exp. 1 (neutrophils [7]; [8]): 43.76
- Vitamin B12 Binding Protein, Exp. 2 (neutrophils [7]; [8]): 35.60
- Vitamin B12 Binding Protein, Exp. 3 (neutrophils [7]; [8]): 59.15
- Vitamin B12 Binding Protein, Exp. 4 (neutrophils [7]; [8]): 37.12
- Vitamin B12 Binding Protein, Exp. 1 (neutrophils [7]; [9]): 11.40
- Vitamin B12 Binding Protein, Exp. 2 (neutrophils [7]; [9]): 10.82
- Vitamin B12 Binding Protein, Exp. 3 (neutrophils [7]; [9]): 13.06
- Vitamin B12 Binding Protein, Exp. 4 (neutrophils [7]; [9]): 8.42
- release from specific granules (Vitamin B12 binding protein), in words (neutrophils [7]; presence of fMLP): enhanced release from specific granules
- chemiluminescence (repeat experiment, Table 3) (human neutrophils [5]; 10 μg/10^6 cells): 0.36 mV
- chemiluminescence (repeat experiment, Table 3) (human neutrophils [5]; 100 μg/10^6 cells): 0.64 mV
